According to ChEMBL document CHEMBL1125803 (J Med Chem, 1991):
Numbered stars: 1 amine (or outer) side, 2 acyl side, 3 side chain; on linkers, the order of the positions; unused ones are H or OH. Square brackets hold non-standard residues; d marks the D form. Peptide text beside a SMILES is read from it. X1 = O=C([C@@H]1CCCN1CC(O)[C@H](Cc1ccccc1)N[*:1])[*:2]

These molecules were tested against T1, Human immunodeficiency virus type 1 protease (Human immunodeficiency virus 1, UniProt Q72874) (assay: (§1) Binding activity against HIV-1 Protease).
Work on `CC(C)(C)NC(=O)C1CC2CCCCC2CN1C[C@H](O)[C@H](Cc1ccccc1)NC(=O)[C@H](CC(N)=O)NC(=O)OCc1ccccc1` (stereo partly drawn) yielded an IC50 greater than 100 nM.
For `CC(C)(C)NC(=O)C1CC2CCCCC2CN1C[C@@H](O)[C@H](Cc1ccccc1)NC(=O)[C@H](CC(N)=O)NC(=O)OCc1ccccc1` (stereo partly drawn), the IC50 was less than 2.7 nM.
Molecule `CC[C@H](C)[C@H](NC(=O)[C@@H]1CCCN1C[C@H](O)[C@H](Cc1ccccc1)NC(=O)[C@H](CC(N)=O)NC(=O)OCc1ccccc1)C(=O)N[C@H](C(=O)OC)C(C)C` has an IC50 of 13 nM.
With `CC[C@H](C)[C@H](NC(=O)[C@@H]1CCCN1C[C@@H](O)[C@H](Cc1ccccc1)NC(=O)[C@H](CC(N)=O)NC(=O)OCc1ccccc1)C(=O)N[C@H](C(=O)OC)C(C)C` the IC50 was greater than 100 nM.
In the case of `CC[C@H](C)[C@H](NC(=O)C1CC2CCCCC2CN1C[C@H](O)[C@H](Cc1ccccc1)NC(=O)[C@H](CC(N)=O)NC(=O)OCc1ccccc1)C(=O)N[C@H](C(=O)OC)C(C)C` (stereo partly drawn), the IC50 is reported as greater than 100 nM.
`CC[C@H](C)[C@H](NC(=O)C1CC2CCCCC2CN1C[C@@H](O)[C@H](Cc1ccccc1)NC(=O)[C@H](CC(N)=O)NC(=O)OCc1ccccc1)C(=O)N[C@H](C(=O)OC)C(C)C` (stereo partly drawn) showed an IC50 greater than 100 nM.
`CC(C)(C)OC(=O)[C@@H]1CCCN1C[C@H](O)[C@H](Cc1ccccc1)NC(=O)[C@H](CC(N)=O)NC(=O)OCc1ccccc1` showed an IC50 of 300 nM.
Molecule `CC(C)(C)OC(=O)[C@@H]1CCCN1C[C@@H](O)[C@H](Cc1ccccc1)NC(=O)[C@H](CC(N)=O)NC(=O)OCc1ccccc1` has an IC50 of 140 nM.
Molecule `CC[C@H](C)[C@H](NC(=O)[C@@H]1CCCN1CC(O)[C@H](Cc1ccccc1)NC(=O)[C@H](CC(N)=O)NC(=O)[C@H](CC(C)C)NC(=O)[C@H](CO)NC(C)=O)C(=O)OC` (stereo partly drawn) (Ac-SLN[X1]I-OMe) has an IC50 of 420 nM.

These molecules were tested against T1, Human immunodeficiency virus type 1 protease (assay: as §1).
In the case of `CC(C)(C)NC(=O)C1CC2CCCCC2CN1C[C@H](O)[C@H](Cc1ccccc1)NC(=O)[C@H](CC(N)=O)NC(=O)OCc1ccccc1` (stereo partly drawn), the IC50 is reported as greater than 100 nM.
`CC(C)(C)NC(=O)C1CC2CCCCC2CN1C[C@@H](O)[C@H](Cc1ccccc1)NC(=O)[C@H](CC(N)=O)NC(=O)OCc1ccccc1` (stereo partly drawn) gave an IC50 of less than 2.7 nM.
Work on `CC[C@H](C)[C@H](NC(=O)[C@@H]1CCCN1C[C@H](O)[C@H](Cc1ccccc1)NC(=O)[C@H](CC(N)=O)NC(=O)OCc1ccccc1)C(=O)N[C@H](C(=O)OC)C(C)C` yielded an IC50 of 13 nM.
`CC[C@H](C)[C@H](NC(=O)[C@@H]1CCCN1C[C@@H](O)[C@H](Cc1ccccc1)NC(=O)[C@H](CC(N)=O)NC(=O)OCc1ccccc1)C(=O)N[C@H](C(=O)OC)C(C)C` gave an IC50 greater than 100 nM.
`CC[C@H](C)[C@H](NC(=O)C1CC2CCCCC2CN1C[C@H](O)[C@H](Cc1ccccc1)NC(=O)[C@H](CC(N)=O)NC(=O)OCc1ccccc1)C(=O)N[C@H](C(=O)OC)C(C)C` (stereo partly drawn) was tested, and the IC50 was greater than 100 nM.
Molecule `CC[C@H](C)[C@H](NC(=O)C1CC2CCCCC2CN1C[C@@H](O)[C@H](Cc1ccccc1)NC(=O)[C@H](CC(N)=O)NC(=O)OCc1ccccc1)C(=O)N[C@H](C(=O)OC)C(C)C` (stereo partly drawn) has an IC50 greater than 100 nM.
`CC(C)(C)OC(=O)[C@@H]1CCCN1C[C@H](O)[C@H](Cc1ccccc1)NC(=O)[C@H](CC(N)=O)NC(=O)OCc1ccccc1` showed an IC50 of 300 nM.
In the case of `CC(C)(C)OC(=O)[C@@H]1CCCN1C[C@@H](O)[C@H](Cc1ccccc1)NC(=O)[C@H](CC(N)=O)NC(=O)OCc1ccccc1`, the IC50 is reported as 140 nM.
With `CC[C@H](C)[C@H](NC(=O)[C@@H]1CCCN1CC(O)[C@H](Cc1ccccc1)NC(=O)[C@H](CC(N)=O)NC(=O)[C@H](CC(C)C)NC(=O)[C@H](CO)NC(C)=O)C(=O)OC` (stereo partly drawn) (Ac-SLN[X1]I-OMe) the IC50 was 420 nM.
